Experimental data reported in paper PMC5674183 (2017).

Columns and labels:
[1] = system: h-TELO-C (DNA, i motif) TAACCCTAACCCTAACCCTAACCC; test: thiazole orange displacement (fluorescence); conditions: K+ (60 mM K-cacodylate); pH 6; thiazole orange displaced, 0.25 μM DNA
[2] = system: 5′-TAMRA-c-MYC-C (DNA, i motif) TCCCCACCTTCCCCACCCTCCCCACCCTCCCCA; test: fluorescence quenching titration; conditions: K+ (60 mM K-cacodylate); pH 6 (folded at pH 4.8), 25 °C, 250 nM DNA
[3] = system: h-TELO-G (DNA, G4) GGGTTAGGGTTAGGGTTAGGG; test: thiazole orange displacement (fluorescence); conditions: K+ (60 mM K-cacodylate); pH 7; thiazole orange displaced, 0.25 μM DNA
[4] = system: 3′-TAMRA-c-MYC-G (DNA, G4) TGGGGAGGGTGGGGAGGGTGGGGAAGGTGGGGA; test: fluorescence quenching titration; conditions: K+ (60 mM K-cacodylate); pH 7, 25 °C, 250 nM DNA
[5] = system: dual labeled c-MYC-G (DNA, G4) TGGGGAGGGTGGGGAGGGTGGGGAAGGTGGGGA; test: FRET melting; conditions: K+ (60 mM K-cacodylate); pH 7; 1 μM compound, 100 nM DNA
[6] = system: 3′-TAMRA-BCL-2-C (DNA, i motif) CAGCCCCGCTCCCGCCCCCTTCCTCCCGCGCCCGCCCCT; test: fluorescence quenching titration; conditions: K+ (60 mM K-cacodylate); pH 6 (folded at pH 4.8), 25 °C, 250 nM DNA
[7] = system: 3′-TAMRA-c-MYC-C (DNA, i motif) TCCCCACCTTCCCCACCCTCCCCACCCTCCCCA; test: fluorescence quenching titration; conditions: K+ (60 mM K-cacodylate); pH 6 (folded at pH 4.8), 25 °C, 250 nM DNA
[8] = system: c-MYC-C (DNA, i motif) TCCCCACCTTCCCCACCCTCCCCACCCTCCCCA; test: thiazole orange displacement (fluorescence); conditions: K+ (60 mM K-cacodylate); pH 6 (folded at pH 4.8); 0.5 μM thiazole orange displaced, 0.25 μM DNA
[9] = system: BCL-2-G (DNA, G4) AGGGGCGGGCGCGGGAGGAAGGGGGCGGGAGCGGGGCGT; test: thiazole orange displacement (fluorescence); conditions: K+ (60 mM K-cacodylate); pH 7; 0.5 μM thiazole orange displaced, 0.25 μM DNA
[10] = system: dual labeled ds DNA (DNA, hairpin, hexaethylene glycol (HEG) linker between 10 and 11) TATAGCTATATATAGCTATA; test: FRET melting; conditions: K+ (60 mM K-cacodylate), pH 6 (Table 1; also pH 7), 1 μM compound, 100 nM DNA
[11] = system: 3′-TAMRA-BCL-2-G (DNA, G4) AGGGGCGGGCGCGGGAGGAAGGGGGCGGGAGCGGGGCGT; test: fluorescence quenching titration; conditions: K+ (60 mM K-cacodylate); pH 7, 25 °C, 250 nM DNA
[12] = system: c-MYC-G (DNA, G4) TGGGGAGGGTGGGGAGGGTGGGGAAGGTGGGGA; test: thiazole orange displacement (fluorescence); conditions: K+ (60 mM K-cacodylate); pH 7; 0.5 μM thiazole orange displaced, 0.25 μM DNA
[13] = system: 5′-TAMRA-c-MYC-G (DNA, G4) TGGGGAGGGTGGGGAGGGTGGGGAAGGTGGGGA; test: fluorescence quenching titration; conditions: K+ (60 mM K-cacodylate); pH 7, 25 °C, 250 nM DNA
[14] = system: 5′-TAMRA-BCL-2-C (DNA, i motif) CAGCCCCGCTCCCGCCCCCTTCCTCCCGCGCCCGCCCCT; test: fluorescence quenching titration; conditions: K+ (60 mM K-cacodylate); pH 6 (folded at pH 4.8), 25 °C, 250 nM DNA
[15] = system: BCL-2-C (DNA, i motif) CAGCCCCGCTCCCGCCCCCTTCCTCCCGCGCCCGCCCCT; test: thiazole orange displacement (fluorescence); conditions: K+ (60 mM K-cacodylate); pH 6 (folded at pH 4.8); 0.5 μM thiazole orange displaced, 0.25 μM DNA
[16] = system: 5′-TAMRA-BCL-2-G (DNA, G4) AGGGGCGGGCGCGGGAGGAAGGGGGCGGGAGCGGGGCGT; test: fluorescence quenching titration; conditions: K+ (60 mM K-cacodylate); pH 7, 25 °C, 250 nM DNA
[17] = system: 5′-TAMRA-ds DNA (DNA, hairpin, hexaethylene glycol (HEG) linker between 10 and 11) TATAGCTATATATAGCTATA; test: fluorescence quenching titration; conditions: K+ (60 mM K-cacodylate); pH 7, 25 °C, 250 nM DNA; up to 30 μM
[18] = system: dual labeled BCL-2-C (DNA, i motif) CAGCCCCGCTCCCGCCCCCTTCCTCCCGCGCCCGCCCCT; test: FRET melting; conditions: K+ (60 mM K-cacodylate); pH 6 (folded at pH 4.8); 1 μM compound, 100 nM DNA

Row | DC50 [1] | K d [2] [% μM] | DC50 [3] [% μM] | K d [4] [% μM] | ΔT m [5] [°C] | K d [6] [% μM] | K d [7] [% μM] | DC50 [8] [% μM] | DC50 [9] [% μM] | ΔT m ([10]; no shift up to 15 μM) [°C] | K d [11] [% μM] | DC50 [12] [% μM] | K d [13] [% μM] | K d [14] [% μM] | DC50 [15] [% μM] | K d [16] [% μM] | K d [17] [µM] | ΔT m [18] [°C] | ΔT m ([10]; no shift up to 10 μM) [°C] | SMILES
1 | > 15 µM | 9.5 ± 5 | 4.7 ± 5 | 4.1 ± 5 | 16 ± 1 | 10.5 ± 5 | 15.1 ± 5 | 6.8 ± 5 | 2.4 ± 5 | 1.1 ± 1 | 4.5 ± 5 | 1.3 ± 5 | 1.3 ± 5 | 5.8 ± 5 | 8.2 ± 5 | 1.9 ± 5 | > 25 | – | – | CN(C)CCCOc1cc(C(=O)NCc2cn(-c3cccc(NC(=O)[C@@H]4CCCN4)c3)nn2)nc(C(=O)NCc2cn(-c3cccc(NC(=O)[C@@H]4CCCN4)c3)nn2)c1
2 | 10 ± 5% μM | – | 8.4 ± 5 | – | – | – | – | 8.4 ± 5 | 9 ± 5 | – | – | 10.2 ± 5 | – | – | 7.9 ± 5 | – | – | – | – | O=C(NCc1cn(-c2ccc(NC(=O)[C@@H]3CCCN3)cc2)nn1)c1cccc(C(=O)NCc2cn(-c3ccc(NC(=O)[C@@H]4CCCN4)cc3)nn2)n1
3 | 4 ± 5% μM | 2.4 ± 5 | 9.8 ± 5 | 16.7 ± 5 | – | 2.1 ± 5 | 5.9 ± 5 | 2.7 ± 5 | 5.7 ± 5 | – | 11.5 ± 5 | 8.5 ± 5 | 12.5 ± 5 | 0.3 ± 5 | 0.9 ± 5 | 7.2 ± 5 | > 25 | 29 ± 1 | 0.94 ± 1 | CN(C)CCCOc1cc(C(=O)NCc2cn(-c3ccc(NC(=O)[C@@H]4CCCN4)cc3)nn2)nc(C(=O)NCc2cn(-c3ccc(NC(=O)[C@@H]4CCCN4)cc3)nn2)c1
